From patent publication EP0058009A1, “Novel benzanilide derivatives and pharmaceutical compositions containing them” (KYOWA HAKKO KOGYO CO., LTD., priority 1981, dated 1982) come the findings set out here.

The subject of one data set is dd strain male mice. The experiment in a line: Acute toxicity, oral administration, deaths counted over one week. Format: in vivo. To be noted: Dose: 1500mg/kg, observed for a week.
Data set [1] concerns carrageenin-induced paw edema. The data set can be described thus: Effect on carrageenin-induced paw edema (anti-inflammatory effect), method of Winter et al. The class given is in vivo, Wistar strain male rats. The conditions noted are these: Rattus norvegicus, oral, 1 hour before 1% carrageenin, paw volume 3 hours after injection, Wistar male rats, read-out: Anti-inflammatory Effect Inhibition Rate (%). As for the experimental part: (2) Effect on carrageenin-induced paw edema (Anti-inflammatory Effect)
This test was conducted according to the method by Winter et al.[Winter C.A. et al.: Proc. Soc. Exptl.
As the animals to be tested, groups of 5 - 10 Wistar strain male rats weighing 140 ± 10 g were used, and a 1% carrageenin solution was employed as the phlogistic agent. The compound to be tested was - orally administered to the animals, and an hour later, 0.1 ml of the phlogistic agent was injected subcutaneously to the right hind paw, to induce edema.
The volume of the paw was measured before the injection of the phlogistic agent and 3 hours after the injection, and based on these volume measurements, the edema rate was calculated from the following equation: [formula]
Vn: The volume before the phlogistic agent treatment.
Vt: The volume after the phlogistic agent treatment.
The effect was determined, compared with the control group, the group to which the compound to be tested was not administered and expressed in terms of the inhibition rate of edema. The inhibition rate was calculated from the following equation.
Ec: The average edema rate of the control group.
Et: The average edema rate of the group to which the compound to be tested was administered...

The subject of a further data set is acetic acid writhing. The data set can be described thus: Analgesic effect, acetic acid writhing method (Koster et al.). The class given is in vivo, dd strain male mice. The conditions noted are these: Mus musculus, oral, 60 minutes before 0.7% acetic acid i.p., number of writhes, dd male mice, read-out: Analgesic Effect Inhibition Rate (%). The protocol: (3) Analgesic Effect (Acetic Acid Writhing Method) This was done according to the method by Koster, et al Federation Proc. 18, 412 (1959)]. The animals to be tested were groups of 10 dd strain male nice weighing 20 ± 1 g. The compound to be tested .was administered orally, and 60 minutes after the administration, 0.2 ml of a 0.7% acetic acid solution ,vas administered intraperitoneally. For a period of 10 minutes from […] minutes after the administration of said acetic acid solution, the number of writhes was measured and the average number was determined. The unhibition rate (%) was calculated from the following equation. [formula] Ec: The average number of writhes in the control group. Et: The average number of writhes in the group to which the compound to be tested was administered.

Consider `CC(C)Cc1ccc(C(C)C(=O)O)cc1` (stereo not drawn) [Ibuprofen, α-methyl-4-(2-methylpropyl) benzene acetic acid, reference compound], for which the “Acute Toxicity Nos. of Deaths/ Nos. of Tests” value in the data set on dd strain male mice is listed as 2/5. Also, the inhibition in vivo at 100 mg/kg in data set [1] is 68.4%; in the data set with acetic acid writhing, 16.3%.

For the molecule `COc1ccc(C(=O)Nc2cc(C(F)(F)F)cc(C(F)(F)F)c2)cc1N` [Compound 3, 3-Amino-3',5'-ditrifluoro-methyl-4-methoxy-benzanilide], the “Acute Toxicity Nos. of Deaths/ Nos. of Tests” value in the data set with dd strain male mice is reported as 0/6. Further, the inhibition in vivo at 100 mg/kg in data set [1] is 16.9%; in the data set with acetic acid writhing, 24.6%.

For `COc1ccc(C(=O)Nc2cccc(F)c2)cc1N` [Compound 1, 3-Amino-3'-fluoro-4-methoxy-benzanilide], the “Acute Toxicity Nos. of Deaths/ Nos. of Tests” value in the data set on dd strain male mice was 0/6. Besides, the inhibition in vivo at 100 mg/kg in data set [1] turned out to be 64.3%; in the data set on acetic acid writhing it was 41.9%.

Take `COc1ccc(C(=O)Nc2ccc(Cl)cc2Cl)cc1N` [Compound 7, 3-Amino-2',4'-dichloro-4-methoxy-benzanilide]: the “Acute Toxicity Nos. of Deaths/ Nos. of Tests” value in the data set on dd strain male mice is on record as 0/6. The inhibition in vivo at 100 mg/kg in data set [1] was determined as 5.5%; in the data set with acetic acid writhing, 40.2%.

With `COc1ccc(C(=O)Nc2cccc(C(F)(F)F)c2)cc1N` [Compound 2, 3-Amino-3'-trifluoro-methyl-4-benzanilide], the “Acute Toxicity Nos. of Deaths/ Nos. of Tests” value with dd strain male mice was 0/6. Also, the inhibition in vivo at 100 mg/kg in data set [1] is 38.8%; in the data set on acetic acid writhing, 48.8%.

For the molecule `COc1ccc(C(=O)Nc2cc(C(F)(F)F)ccc2Cl)cc1N` [Compound 5, 3-Amino-2'-chloro-5'-tri-fluoromethyl-4-methoxy-benzanilide], the “Acute Toxicity Nos. of Deaths/ Nos. of Tests” value with dd strain male mice was 0/6. For the same molecule, the inhibition in vivo at 100 mg/kg in data set [1] is 0%; in the data set on acetic acid writhing, 52.3%.

As to `COc1ccc(C(=O)Nc2ccc(Cl)cc2C(F)(F)F)cc1N` [Compound 4, 3-Amino-2'-trifluoro-methyl-4'-chloro-4-methoxy-benzanilide], the “Acute Toxicity Nos. of Deaths/ Nos. of Tests” value with dd strain male mice is listed as 0/6. Besides, the inhibition in vivo at 100 mg/kg in data set [1] is 8.7%; with acetic acid writhing it was 34.8%.

For the molecule `COc1cc(C)nc(-n2nc(C)cc2OC)n1` [Mepirizole, 4-methoxy-2-(5-methoxy-3-meLhylpyrazol-1-yl)-6-methylpyrimidine, reference compound], in the data set on dd strain male mice, the “Acute Toxicity Nos. of Deaths/ Nos. of Tests” value is 2/2. The inhibition in vivo at 100 mg/kg came to 29.2% in data set [1] and 44.6% in the data set on acetic acid writhing.

With `COc1ccc(C(=O)Nc2ccccc2)cc1N` [Compound 6, 3-Amino-4-methoxy-benzanilide], the “Acute Toxicity Nos. of Deaths/ Nos. of Tests” value in the data set on dd strain male mice is listed as 0/5. The inhibition in vivo at 100 mg/kg was determined as 55.9% in data set [1] and 43.4% in the data set on acetic acid writhing.

With `COc1ccc(C(=O)Nc2c(C)cccc2C)cc1N` [Compound 8, 3-Amino-2',6'-dimethyl-4-methoxy-benzanilide], the “Acute Toxicity Nos. of Deaths/ Nos. of Tests” value with dd strain male mice is 0/6. The inhibition in vivo at 100 mg/kg turned out to be 19.5% in data set [1] and 45.7% in the data set on acetic acid writhing.
